# Reference: US8637518B2, “Pyridazinone derivatives” (MERCK PATENT GmbH, priority 2008, dated 2014)
# What was measured:
# [1] = target: T1, Met kinase (Homo sapiens, UniProt P08581); experiment: Met kinase inhibition, enzyme assay (flashplate method); format: biochemical
# T1 construct: 6His (N); purchased Upstate 14-526; host or cells: Sf21 insect cells (S. frugiperda), baculovirus
# Text: According to the manufacturer's data (Met, active, upstate, catalogue No. 14-526), Met kinase is expressed for the purposes of protein production in insect cells (Sf21; S. frugiperda) and subsequent affinity-chromatographic purification as “N-terminal 6His-tagged” recombinant human protein in a baculovirus expression vector.
# The test plates used are 96-well Flashplate® microtitre plates from Perkin Elmer (Cat. No. SMP200). The components of the kinase reaction described below are pipetted into the assay plate. The Met kinase and the substrate poly Ala-Glu-Lys-Tyr, (pAGLT, 6:2:5:1), are incubated for 3 hrs at room temperature with radioactively labelled ^33P-ATP in the presence and absence of test substances in a total volume of 100 μl. The reaction is terminated using 150 μl of a 60 mM EDTA solution. After incubation for a further 30 min at room temperature, the supernatants are filtered off with suction, and the wells are washed three times with 200 μl of 0.9% NaCl solution each time. The measurement of the bound radioactivity is carried out by means of a scintillation measuring instrument (Topcount NXT, Perkin-Elmer).
# The full value used is the inhibitor-free kinase reaction. This should be approximately in the range 6000-9000 cpm. The pharmacological zero value used is staurosporin in a final concentration of […]. The inhibitory values ([…]) are determined using the RS1_MTS program.
# Kinase reaction conditions per well:
# • 30 μl of assay buffer • 10 μl of substance to be tested in assay buffer with 10% of DMSO • 10 μl of ATP (final concentration 1 μM cold, 0.35 μCi of ^33P-ATP) • 50 μl of Met kinase/substrate mixture in assay buffer; • (10 ng of enzyme/well, 50 ng of pAGLT/well)
# Solutions used: • Assay buffer:
# 50 mM HEPES • 3 mM magnesium chloride • 3 μM sodium orthovanadate • 3 mM manganese(II) chloride • 1 mM dithiothreitol (DTT)
# pH=7.5 (to be set using sodium hydroxide) • Stop solution:
# 60 mM Titriplex III (EDTA) • ^33P-ATP: Perkin-Elmer; • Met kinase: Upstate, Cat. No. 14-526, Stock 1 μg/10 μl; spec. activity 954 U/mg; • Poly-Ala-Glu-Lys-Tyr, 6:2:5:1: Sigma Cat. No. P1152 In-vivo tests
# T1 sequence (P08581 974-1390 limits assumed): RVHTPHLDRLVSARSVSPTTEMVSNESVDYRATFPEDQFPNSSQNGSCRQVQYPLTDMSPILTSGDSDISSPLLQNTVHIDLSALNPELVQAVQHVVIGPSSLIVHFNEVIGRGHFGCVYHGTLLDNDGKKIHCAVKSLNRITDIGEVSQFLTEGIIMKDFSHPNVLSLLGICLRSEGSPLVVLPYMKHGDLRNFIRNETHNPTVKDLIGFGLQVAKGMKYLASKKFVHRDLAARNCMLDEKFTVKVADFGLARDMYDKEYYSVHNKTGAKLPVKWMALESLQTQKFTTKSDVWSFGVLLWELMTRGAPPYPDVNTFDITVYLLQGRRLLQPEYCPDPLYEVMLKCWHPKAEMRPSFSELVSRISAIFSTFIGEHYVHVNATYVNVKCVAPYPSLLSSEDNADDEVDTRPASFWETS
IC50 [1],melting point,Structure (SMILES)
10 to 1000 nM,–,"CO[C@@H](C)[C@H](N)C(=O)NCCOc1cnc(-c2cccc(Cn3nc(-c4cnn(C)c4)ccc3=O)c2)nc1 [Compound A1, (2S,3S)-2-amino-3-methoxy-N-[2-(2-{3-[3-(1-methyl-1H-pyrazol-4-yl)-6-oxo-6H-pyridazin-1-ylmethyl]phenyl}pyrimidin-5-yloxy)ethyl]-butyramide]"
10 to 1000 nM,–,"Cn1cc(-c2ccc(=O)n(Cc3cccc(-c4ncc(OCCNC(=O)[C@@H]5C[C@@H](O)CN5)cn4)c3)n2)cn1 [Compound A2, N-[2-(2-{3-[3-(1-Methyl-1H-pyrazol-4-yl)-6-oxo-6H-pyridazin-1-ylmethyl]-phenyl}pyrimidin-5-yloxy)ethyl]-(2S,4R)-4-hydroxypyrrolidine-2-carboxamide]"
10 to 1000 nM,–,Cn1cc(-c2ccc(=O)n(Cc3cccc(-c4ncc(OCCNC(=O)[C@@H]5CCCN5)cn4)c3)n2)cn1 [Compound A3]
10 to 1000 nM,–,"N#Cc1cccc(-c2ccc(=O)n(Cc3cccc(-c4ncc(OCCNC(=O)[C@@H]5C[C@@H](O)CN5)cn4)c3)n2)c1 [Compound A4, N-[2-(2-{3-[3-(3-Cyanophenyl)-6-oxo-6H-pyridazin-1-ylmethyl]phenyl}-pyrimidin-5-yloxy)ethyl]-(2S,4R)-4-hydroxypyrrolidine-2-carboxamide]"
10 to 1000 nM,–,"N#Cc1cccc(-c2ccc(=O)n(Cc3cccc(-c4ncc(OCCNC(=O)[C@@H]5CCCN5)cn4)c3)n2)c1 [Compound A5, N-[2-(2-{3-[3-(3-Cyanophenyl)-6-oxo-6H-pyridazin-1-ylmethyl]phenyl}-pyrimidin-5-yloxy)ethyl]-(S)-pyrrolidine-2-carboxamide]"
10 to 1000 nM,–,"CO[C@@H](C)[C@H](N)C(=O)NCCOc1cnc(-c2cccc(Cn3nc(-c4cccc(C#N)c4)ccc3=O)c2)nc1 [Compound A6, (2S,3S)-2-Amino-N-[2-(2-{3-[3-(3-cyanophenyl)-6-oxo-6H-pyridazin-1-yl-methyl]phenyl}pyrimidin-5-yloxy)ethyl]-3-methoxybutyramide]"
10 to 1000 nM,–,"CC(=O)N[C@H](C(=O)NCCOc1cnc(-c2cccc(Cn3nc(-c4cnn(C)c4)ccc3=O)c2)nc1)C(C)C [Compound A7, (S)-2-acetylamino-3-methyl-N-[2-(2-{3-[3-(1-methyl-1H-pyrazol-4-yl)-6-oxo-6H-pyridazin-1-ylmethyl]phenyl}pyrimidin-5-yloxy)ethyl]-butyramide]"
10 to 1000 nM,–,"CC(=O)N[C@H](C(=O)NCCOc1cnc(-c2cccc(Cn3nc(-c4cccc(C#N)c4)ccc3=O)c2)nc1)C(C)C [Compound A8, (S)-2-acetylamino-N-[2-(2-{3-[3-(3-cyanophenyl)-6-oxo-6H-pyridazin-1-yl-methyl]phenyl}pyrimidin-5-yloxy)ethyl]-3-methylbutyramide]"
10 to 1000 nM,–,"N#Cc1cccc(-c2ccc(=O)n(Cc3cccc(-c4ncc(O[C@@H]5CN[C@H](C(=O)O)C5)cn4)c3)n2)c1 [Compound A10, (2S,4S)-4-(2-{3-[3-(3-cyanophenyl)-6-oxo-6H-pyridazin-1-yl-methyl]phenyl}pyrimidin-5-yloxy)pyrrolidine-2-carboxylic acid]"
10 to 1000 nM,–,"Cn1cc(-c2ccc(=O)n(Cc3cccc(-c4ncc(OCCC[C@H](N)C(=O)O)cn4)c3)n2)cn1 [Compound A11, (S)-2-Amino-5-(2-{3-[3-(1-methyl-1H-pyrazol-4-yl)-6-oxo-6H-pyridazin-1-yl-methyl]phenyl}pyrimidin-5-yloxy)pentanoic acid]"
10 to 1000 nM,–,"CN(C)CC1CCC(COc2cnc(-c3cccc(Cn4nc(-c5cnn(C)c5)ccc4=O)c3)nc2)CC1 (centres unmarked) [Compound A13, 2-{3-[5-(4-dimethylaminomethylcyclohexylmethoxy)pyrimidin-2-yl]benzyl}-6-(1-methyl-1H-pyrazol-4-yl)-2H-pyridazin-3-one]"
10 to 1000 nM,–,"Cn1cc(-c2ccc(=O)n(Cc3cccc(-c4ncc(OCC5CCC(CN)CC5)cn4)c3)n2)cn1 (centres unmarked) [Compound A13a, 2-{3-[5-(4-aminomethylcyclohexylmethoxy)pyrimidin-2-yl]benzyl}-6-(1-methyl-1H-pyrazol-4-yl)-2H-pyridazin-3-one]"
10 to 1000 nM,–,"N#Cc1cccc(-c2ccc(=O)n(Cc3cccc(-c4ncc(OCC5CCC(CN)CC5)cn4)c3)n2)c1 (centres unmarked) [Compound A13b, 3-(1-{3-[5-(4-Aminomethylcyclohexylmethoxy)pyrimidin-2-yl]benzyl}-6-oxo-1,6-dihydropyridazin-3-yl)benzonitrile]"
10 to 1000 nM,–,"N#Cc1cccc(-c2ccc(=O)n(Cc3cccc(-c4ncc(OCC5CC5CN)cn4)c3)n2)c1 (centres unmarked) [Compound A13c, 3-(1-{3-[5-(2-Aminomethylcyclopropylmethoxy)pyrimidin-2-yl]benzyl}-6-oxo-1,6-dihydropyridazin-3-yl)benzonitrile]"
10 to 1000 nM,–,"Cn1cc(-c2ccc(=O)n(Cc3cccc(-c4ncc(OCC5(CN)CC5)cn4)c3)n2)cn1 [Compound A14, 2-{3-[5-(1-Aminomethylcyclopropylmethoxy)pyrimidin-2-yl]benzyl}-6-(1-methyl-1H-pyrazol-4-yl)-2H-pyridazin-3-one]"
10 to 1000 nM,–,"N#Cc1cccc(-c2ccc(=O)n(Cc3cccc(-c4ncc(OCC5(CN)CC5)cn4)c3)n2)c1 [Compound A15, 3-(1-{3-[5-(1-Aminomethylcyclopropylmethoxy)pyrimidin-2-yl]benzyl}-6-oxo-1,6-dihydropyridazin-3-yl)benzonitrile]"
10 to 1000 nM,–,"CN(C)C[C@H]1C[C@@H]1COc1cnc(-c2cccc(Cn3nc(-c4cccc(C#N)c4)ccc3=O)c2)nc1 [Compound A17, 3-(1-{3-[5-((1S,2S)-2-Dimethylaminomethylcyclopropylmethoxy)pyrimidin-2-yl]benzyl}-6-oxo-1,6-dihydropyridazin-3-yl)benzonitrile]"
10 to 1000 nM,–,"N#Cc1cccc(-c2ccc(=O)n(Cc3cccc(-c4ncc(O[C@H]5CCC[C@H]5N)cn4)c3)n2)c1 [Compound A19, 3-(1-{3-[5-((1S,2R)-2-Aminocyclopentyloxy)pyrimidin-2-yl]benzyl}-6-oxo-1,6-dihydropyridazin-3-yl)benzonitrile]"
10 to 1000 nM,–,"Cn1cc(-c2ccc(=O)n(Cc3cccc(-c4ncc(O[C@H]5CCC[C@H]5N)cn4)c3)n2)cn1 [Compound A20, 2-{3-[5-((1S,2R)-2-Aminocyclopentyloxy)pyrimidin-2-yl]benzyl}-6-(1-methyl-1H-pyrazol-4-yl)-2H-pyridazin-3-one]"
10 to 1000 nM,–,"N#Cc1cccc(-c2ccc(=O)n(Cc3cccc(-c4ncc(OC5CCC(O)C5)cn4)c3)n2)c1 (centres unmarked) [Compound A23, 3-(1-{3-[5-(3-Hydroxycyclopentyloxy)pyrimidin-2-yl]benzyl}-6-oxo-1,6-dihydro-pyridazin-3-yl)benzonitrile]"
10 to 1000 nM,–,"N#Cc1cccc(-c2ccc(=O)n(Cc3cccc(-c4ncc(OCC5CCN(CC6CC6)CC5)cn4)c3)n2)c1 [Compound A24, 3-(1-{3-[5-(1-cyclopropylmethylpiperidin-4-ylmethoxy)-pyrimidin-2-yl]benzyl}-6-oxo-1,6-dihydropyridazin-3-yl)benzonitrile]"
–,242 to 243 °C,"CNC(=O)COc1cnc(-c2cccc(Cn3nc(-c4cnn(C)c4)ccc3=O)c2)nc1 [Compound A27, N-Methyl-2-(2-{3-[3-(1-methyl-1H-pyrazol-4-yl)-6-oxo-6H-pyridazin-1-ylmethyl]phenyl}pyrimidin-5-yloxy)acetamide]"
10 to 1000 nM,–,"CC(C)(C)OC(=O)NCCOc1cnc(-c2cccc(Cn3nc(-c4cccc(C#N)c4)ccc3=O)c2)nc1 [Compound B2, tert-butyl [2-(2-{3-[3-(3-cyanophenyl)-6-oxo-6H-pyridazin-1-ylmethyl]phenyl}-pyrimidin-5-yloxy)ethyl]carbamate]"
–,149 to 150 °C,"N#Cc1cccc(-c2ccc(=O)n(Cc3cccc(-c4ncc(OCCN5CCNCC5)cn4)c3)n2)c1 [Compound C5, 3-(6-oxo-1-{3-[5-(2-piperazin-1-ylethoxy)pyrimidin-2-yl]benzyl}-1,6-dihydro-pyridazin-3-yl)benzonitrile]"
–,197 to 198 °C,"CC(C)(C)OC(=O)N1CCC(COc2cnc(-c3cccc(Cn4nc(-c5cccc(C(N)=O)c5)ccc4=O)c3)nc2)CC1 [Compound C18, tert-butyl 4-(2-{3-[3-(3-carbamoylphenyl)-6-oxo-6H-pyridazin-1-ylmethyl]-phenyl}pyrimidin-5-yloxymethyl)piperidine-1-carboxylate]"
–,200 to 201 °C,"CC(C)Oc1cnc(-c2cccc(Cn3nc(-c4cccc(C#N)c4)ccc3=O)c2)nc1 [Compound D2, 3-{1-[3-(5-Isopropoxypyrimidin-2-yl)benzyl]-6-oxo-1,6-dihydropyridazin-3-yl}benzonitrile]"
